System: MRSA ATCC 33591
Assay: Resistance development over 17 serial passages at sub-MIC
Format: cell-based, Staphylococcus aureus
Details: at the 11th passage, constant up to the 17th passage
Method: For the experiment, a method as described previously was used with slight modifications. Briefly, for the experiment, on day 1 the initial MICs of all test agents were determined using routine MIC experiment protocol as described earlier. Next day, bacterial cells (100 μL) from the wells with concentrations 2–4 fold less than the MIC value for each test agent were used to set up fresh mid-log phase cultures in MHB medium for setting up the MIC plate. This was repeated for a total of 17 sub-lethal treatments with each antimicrobial agent. For every passage, corresponding glycerol stocks (15% v/v) were made for each culture and were kept at −80 °C for future use.

CN[C@H](CC(C)C)C(=O)N[C@H]1C(=O)N[C@@H](CC(N)=O)C(=O)N[C@H]2C(=O)N[C@H]3C(=O)N[C@H](C(=O)N[C@H](C(=O)O)c4cc(O)cc(O)c4-c4cc3ccc4O)[C@H](O)c3ccc(c(Cl)c3)Oc3cc2cc(c3O[C@@H]2O[C@H](CO)[C@@H](O)[C@H](O)[C@H]2O[C@H]2C[C@](C)(N)[C@H](O)[C@H](C)O2)Oc2ccc(cc2Cl)[C@H]1O [VAN, vancomycin]
fold increase in MIC: 8 fold

Source: article PMC5773577, “Novel Miniature Membrane Active Lipopeptidomimetics against Planktonic and Biofilm Embedded Methicillin-Resistant Staphylococcus aureus” (Scientific Reports, 2018)
